# In publication PMC8619914, “Development of Novel Peptides for the Antimicrobial Combination Therapy against Carbapenem-Resistant Acinetobacter baumannii Infection” (Pharmaceutics, 2021):
# Read-outs that look alike come from different tables or passages of the source. Where no end group is shown, it is not given here.
# Key:
# CRAB C5 [1] = experiment: microbe, parasite or virus in culture; conditions: 16 h; for MIC: Acinetobacter baumannii, read-out: Minimum Inhibitory Concentration, CRAB C5
# Excerpt: (§1) The Gram-negative bacterial strain Escherichia coli (KCTC 1682) and Gram-positive bacterial strain Staphylococcus aureus (KCTC 1621) were purchased from the Korean Collection for Type Cultures (Jeongeup, Korea). Acinetobacter baumannii (KCCM 40203) were purchased from Korea Culture Center of Microorganisms (Seoul, Korea). Additionally, five carbapenem-resistant Acinetobacter baumanii C1–C5 (CRAB C1–C5), which have the OXA-23 gene with carbapenem-resistance were collected from the patients with CRAB bacteremia, who presented symptoms and signs of infection at Korea University Anam Hospital (Seoul, Korea) (IRB registration no. 2020AN0157). The minimum inhibitory concentrations (MIC) of the AMP and antibiotics against the various bacterial strains were assessed using the serial dilution method on Muller–Hinton (MH) media, as described previously. […] Absorbance at 600 nm was measured using a SpectraMAX microplate reader (Molecular Devices, San Jose, CA, USA).
# (§2) Measurement of the minimum inhibitory concentrations (MIC) was conducted to determine the effect of the hydrophobicity of each antimicrobial peptide on its antimicrobial activity. MIC was defined as the minimum concentration that killed more than 99% of bacteria; it was measured against two standard Gram-negative bacteria (E. coli and A. baumanii), five clinically isolated CRAB (C1–C5), and one Gram-positive bacteria (S. aureus).
# [2] = system: Staphylococcus aureus (KCTC 1621); experiment: microbe, parasite or virus in culture; conditions: for MIC: Staphylococcus aureus, KCTC1621, 16 h, read-out: Minimum Inhibitory Concentration, S.aureus
# Excerpt: as §1, §2
# CRAB C1 [3] = experiment: microbe, parasite or virus in culture; conditions: 16 h; for MIC: Acinetobacter baumannii, read-out: Minimum Inhibitory Concentration, CRAB C1
# Excerpt: as §1, §2
# [4] = system: Acinetobacter baumannii (KCCM 40203); experiment: microbe, parasite or virus in culture; conditions: for MIC: Acinetobacter baumannii, KCCM40203, 16 h, read-out: Minimum Inhibitory Concentration, A. baumanii
# Excerpt: as §1, §2
# CRAB C4 [5] = experiment: microbe, parasite or virus in culture; conditions: 16 h; for MIC: Acinetobacter baumannii, read-out: Minimum Inhibitory Concentration, CRAB C4
# Excerpt: as §1, §2
# CRAB C3 [6] = experiment: microbe, parasite or virus in culture; conditions: 16 h; for MIC: Acinetobacter baumannii, read-out: Minimum Inhibitory Concentration, CRAB C3
# Excerpt: as §1, §2
# [7] = system: Escherichia coli (KCTC 1682); experiment: microbe, parasite or virus in culture; conditions: for MIC: Escherichia coli, KCTC1682, 16 h, read-out: Minimum Inhibitory Concentration, E. coli
# Excerpt: as §1, §2
# CRAB C2 [8] = experiment: microbe, parasite or virus in culture; conditions: 16 h; for MIC: Acinetobacter baumannii, read-out: Minimum Inhibitory Concentration, CRAB C2
# Excerpt: as §1, §2
# CRAB C1 biofilm = experiment: Biofilm inhibition, crystal violet; type: cell-based, carbapenem-resistant Acinetobacter baumannii; conditions: Acinetobacter baumannii, read-out: percentage of biofilm inhibition
# Method: CRAB C1 cells (2 × 10^5 CFU·mL^−^1) were incubated with PapMA-3 and antibiotics in a tissue-culture well plate in MH medium containing 0.2% glucose for 16 h at 37 °C. The cells were stained with 0.1% (w/v) crystal violet in 0.25% (v/v) acetic acid for 1 h at room temperature; the dye complex was dissolved with ethanol. Absorbance at 595 nm was measured using SpectraMAX microplate reader (Molecular Devices) to quantify the biofilm formation.
# Biofilms were quantified by staining with crystal violet. (A) Absorbance of crystal violet-stained biofilms with treatment of PapMA-3 and antibiotics at a concentration range of 32 to 512 μg·mL^−1, assessed at 595 nm. […] CRAB C1 without peptides or antibiotics served as the control (red). Statistical analysis was performed using two-way ANOVA with Dunnett’s comparison test. The values are expressed as the mean ± SEM of three independent experiments and are statistically significant at ** p < 0.01 and *** p < 0.001. ns, not significant.
# [9] = system: Gram-negative bacterial strains; experiment: organism not typed; conditions: for MIC: read-out: GM (mean MIC of Gram-negative bacterial strains)
# Excerpt: as §1
# Geometric means (GM) were calculated to compare the relative antimicrobial activities of the analogs against Gram-negative bacteria. […] Next, the antibacterial mechanisms of peptides were investigated.
# CRAB C1 [10] = experiment: FE-SEM of membrane damage; type: cell-based, carbapenem-resistant Acinetobacter baumannii; conditions: erythromycin 128 μg·mL^−1 alone, 1 h and 2 h
# Method: The cells were washed using PBS, fixed in 1% osmium tetroxide for 1 h, and dehydrated using a graded ethanol series. After dehydration, ethanol contents in the sample were replaced with varying ratio (2:1, 1:1, 1:2, 0:1 v/v) of ethanol–isoamyl acetate mixture. The cells were fixed on a glass slide with hexamethyldisilzane, dried under reduced pressure, and platinum-coated; they were visualized using an FE-SEM (SU8020; Hitachi, Tokyo, Japan).
# Figure 7 FE-SEM images of CRAB C1 treated with PapMA-3. (A) Only CRAB C1. […] (F–I) same experiments after incubation for 1 h, respectively.
# CRAB C5 [11] = experiment: microbe, parasite or virus in culture; conditions: 16 h; for MIC: Acinetobacter baumannii, read-out: MIC alone, CRAB C5
# Method: (§3) The synergistic effects of AMPs and antibiotics were measured using checkerboard assays. Serial dilutions of PapMA-3 and antibiotics were performed from 1 to […] of the MIC. Samples were then cross-mixed and cultured in MH medium with 2 × 10^5 CFU·ml^−^1 bacteria. Results were recorded after 16 h of incubation at 37 °C. The fractional inhibitory concentration index (FICI) was calculated according to the European Committee on Antimicrobial Susceptibility (EUCAST).
# (§4) The ability of PapMA-3 to facilitate these antibiotics in penetrating the bacterial membranes of Gram-negative bacteria was investigated.
# CRAB C1 [12] = experiment: microbe, parasite or virus in culture; conditions: 16 h; for MIC: Acinetobacter baumannii, read-out: MIC alone, CRAB C1
# Method: as §3, §4
# CRAB C4 [13] = experiment: microbe, parasite or virus in culture; conditions: 16 h; for MIC: Acinetobacter baumannii, read-out: MIC alone, CRAB C4
# Method: as §3, §4
# CRAB C3 [14] = experiment: microbe, parasite or virus in culture; conditions: 16 h; for MIC: Acinetobacter baumannii, read-out: MIC alone, CRAB C3
# Method: as §3, §4
# CRAB C2 [15] = experiment: microbe, parasite or virus in culture; conditions: 16 h; for MIC: Acinetobacter baumannii, read-out: MIC alone, CRAB C2
# Method: as §3, §4
# HaCaT cells = experiment: Cytotoxicity, WST-8 Cell Proliferation Assay; type: cell-based, human; conditions: 32 μg·mL^−1, 24 h and 48 h, compared to blank control
# Method: (§5) Human embryonic kidney (HEK)-293 cells, purchased from Korean cell line bank (Seoul, Korea) were cultured in Dulbecco’s modified Eagle’s medium (DMEM) (Welgene, Gyeong-san, Korea) with 10% fetal bovine serum, 1% penicillin-streptomycin at 37 °C in a humidified 5% CO2 incubator as described previously. The cytotoxicity of the six PapMA peptides and melittin was determined using WST-8 Cell Proliferation Assay Kit (Biomax Co, Ltd., Seoul, Korea), according to the manufacturer’s instructions. […] The absorbance was measured at 450 nm using a SpectraMAX microplate reader (Molecular Devices).
# Figure 10 Cytotoxicity of PapMA-3 (A) Cytotoxicity of PapMA-3 against HEK-293 cells at 24 h and 48 h. (B) Cytotoxicity of PapMA-3 against HaCaT cell at 24 h and 48 h. Statistical analysis was performed using two-way ANOVA with Dunnett’s comparison test. The values are expressed as the mean ± SEM of three independent experiments and are statistically significant at * p < 0.05; *** p < 0.001; ns, not significant.
# CRAB C1 [16] = conditions: 50% human serum in MH medium, 16 h, 37 °C; measure of serum stability
# Method: Antibacterial activity of PapMA-3 in combination with imipenem was measured against CRAB C1 in the presence of 50% human serum. The treated cells were incubated for 16 h at 37 °C, and the absorbance at 600 nm was measured using a SpectraMAX microplate reader (Molecular Devices).
# HEK-293 cells = experiment: Cytotoxicity, WST-8 Cell Proliferation Assay; type: cell-based, human; conditions: 64 μg·mL^−1, 24 h, WST-8
# Method: as §5
# Figure 4 Cytotoxicity of PapMA analogs. (A) Cytotoxicity of PapMA and its analogs against HEK-293 cell. […] (B) Hemolysis activity of PapMA analogs against sRBC. The peptide was serially diluted and incubated with sRBC for 1 h with melittin as a control. Statistical analysis was performed using two-way ANOVA with Dunnett’s comparison test. The values are expressed as the mean ± SEM of three independent experiments and are statistically significant at ** p < 0.01; and *** p < 0.001. ns, not significant.
# [17] = MH media, 2 × 10^5 CFU·mL^−1, 37 °C, absorbance 600 nm
# [18] = checkerboard table, single agent, MH medium, 37 °C
Compound,MIC (CRAB C5 [1]),MIC [2],MIC (CRAB C1 [3]),MIC [4],MIC (CRAB C4 [5]),MIC (CRAB C3 [6]),MIC [7],MIC (CRAB C2 [8]),MIC [9],MIC (CRAB C5 [11]),MIC (CRAB C1 [12]),MIC (CRAB C4 [13]),MIC (CRAB C3 [14]),MIC (CRAB C2 [15]),other results
CC[C@H]1OC(=O)[C@H](C)[C@@H](O[C@H]2C[C@@](C)(OC)[C@@H](O)[C@H](C)O2)[C@H](C)[C@@H](O[C@@H]2O[C@H](C)C[C@H](N(C)C)[C@H]2O)[C@](C)(O)C[C@@H](C)C(=O)[C@H](C)[C@@H](O)[C@]1(C)O [Erythromycin],> 512 µg/mL,0.25 µg/mL,> 512 µg/mL,32 µg/mL,> 512 µg/mL,512 µg/mL,16 µg/mL,512 µg/mL,592 µg/mL,> 512 µg/mL,> 512 µg/mL,> 512 µg/mL,512 µg/mL,512 µg/mL,"inhibition at 32 µg/mL (CRAB C1 biofilm; 32 μg·mL^−1, CRAB C1, compared to the control): 37.7%; membrane integrity of CRAB C1 (FE-SEM) (CRAB C1 [10]): not altered"
CN[C@H](CC(C)C)C(=O)N[C@H]1C(=O)N[C@@H](CC(N)=O)C(=O)N[C@H]2C(=O)N[C@H]3C(=O)N[C@H](C(=O)N[C@H](C(=O)O)c4cc(O)cc(O)c4-c4cc3ccc4O)[C@H](O)c3ccc(c(Cl)c3)Oc3cc2cc(c3O[C@@H]2O[C@H](CO)[C@@H](O)[C@H](O)[C@H]2O[C@H]2C[C@](C)(N)[C@H](O)[C@H](C)O2)Oc2ccc(cc2Cl)[C@H]1O [Vancomycin],256 µg/mL,0.5 µg/mL,256 µg/mL,256 µg/mL,512 µg/mL,256 µg/mL,128 µg/mL,256 µg/mL,274 µg/mL,256 µg/mL,256 µg/mL,512 µg/mL,256 µg/mL,256 µg/mL,inhibition at 32 µg/mL (CRAB C1 biofilm): 77.2%
RWKIFKKIPKFLHSAKKW-NH2 [PapMA-3],–,–,–,–,–,–,–,–,–,–,–,–,–,–,"Minimum Inhibitory Concentration, CRAB C5 (CRAB C5 [1]; [17]): 16 µg/mL; Minimum Inhibitory Concentration, S.aureus ([2]; KCTC 1621, 16 h): 32 µg/mL; Minimum Inhibitory Concentration, CRAB C1, MH Media (CRAB C1 [3]; MH media without serum, 37 °C): 16 µg/mL; Minimum Inhibitory Concentration, CRAB C1 (CRAB C1 [3]; [17]): 16 µg/mL; Minimum Inhibitory Concentration, A. baumanii ([4]; KCCM 40203, 16 h): 16 µg/mL; Minimum Inhibitory Concentration, A. baumannii, MH Media ([4]; KCCM 40203, 16 h): 16 µg/mL; Minimum Inhibitory Concentration, CRAB C4 (CRAB C4 [5]; [17]): 32 µg/mL; Minimum Inhibitory Concentration, CRAB C3 (CRAB C3 [6]; [17]): 16 µg/mL; Minimum Inhibitory Concentration, E. coli, MH Media ([7]; KCTC 1682, 16 h): 16 µg/mL; Minimum Inhibitory Concentration, E. coli ([7]; MH media, 2 × 10^5 CFU·mL^−1, 37 °C, 16 h, absorbance 600 nm, MIC kills more than 99% of bacteria): 16 µg/mL; Minimum Inhibitory Concentration, CRAB C2 (CRAB C2 [8]; [17]): 16 µg/mL; GM (mean MIC of Gram-negative bacterial strains) ([9]; seven Gram-negative strains, 256 assumed for MIC > 128 and 1024 for MIC > 512 μg·mL^−1): 18 µg/mL; MIC alone, CRAB C5 (CRAB C5 [11]; [18]): 16 µg/mL; MIC alone, CRAB C1 (CRAB C1 [12]; [18]): 16 µg/mL; MIC alone, CRAB C4 (CRAB C4 [13]; [18]): 32 µg/mL; MIC alone, CRAB C3 (CRAB C3 [14]; [18]): 16 µg/mL; MIC alone, CRAB C2 (CRAB C2 [15]; [18]): 16 µg/mL; cell proliferation and viability, HaCaT (HaCaT cells): remained unaltered; Minimum Inhibitory Concentration, CRAB C1, + Serum (50%) (CRAB C1 [16]): 64 µg/mL; survival rate of HEK-293 cells (HEK-293 cells): 100%"
